Experimental findings from publication PMC7048932, “Examining sterically demanding lysine analogs for histone lysine methyltransferase catalysis” (Scientific Reports, 2020) are described below.

The test system of experiment [1] is SETD7. Nature of the experiment: MALDI-TOF MS methylation assay of H3K4 peptides with SETD7. The class given is biochemical, human. Particulars: peptide 100 µM, SETD7 10 µM, SAM 1 mM, 1 h and 3 h, 37 °C.
Experiment [2] relates to SETD7. Described as above. The class given is biochemical, human. To be noted: peptide 100 µM, SETD7 2 µM, SAM 200 µM, 1 h, 37 °C. The protocol: (§1) MALDI-MS methyltransferases activity experiments were performed using a Bruker instrument in the reflectron positive mode. For regular methyltransferase standard conditions experiment which carried out in 30 µL total volume, the mixture contains peptide (100 µM), SAM (200 µM), SETD8 or SETD7 (2 µM), in assay buffer 50 mM Tris at optimal pH 8.0. In case of G9a and GLP, similar conditions were used, except (500 µM) of SAM was added to the reaction mixture. Samples were incubated in an Eppendorf vial 1.5 mL using thermomixer for 1 h at 37 °C. A 5 µL aliquot of the solution was mixed with 5 µL of MeOH, after which 5 µL of this mixture was mixed with 5 µL of α-cyano-4-hydroxycinamic acid matrix (CHCA, 5 mg/mL in 125:125 µL acetonitrile/water). The spots were placed on a stainless steel MALDI plate (MS 96 target ground steel BC of Bruker, Germany). The mass corresponding to one monomethylation observed as +14 Da, dimethylation observed as +28 Da and trimethylation observed as +42 Da. The enzymatic activity was determined by taking the peak areas of each methylation state, including all isotopes and adducts, and was annotated using FlexAnalysis software (Bruker Daltonics, Germany). […] Methylated peptide substrates were repeated five times and the unmethylated substrates were triplicated. Sequences of the examined peptides are given in (Supplementary Table 1).

In experiment [3] the target is T1, GLP (Homo sapiens, UniProt Q9H9B1).
T1 construct: His6 (N); made in house; host or cells: E. coli BL21 (DE3)pLysS-rosetta
T1 sequence (Q9H9B1 1-1298): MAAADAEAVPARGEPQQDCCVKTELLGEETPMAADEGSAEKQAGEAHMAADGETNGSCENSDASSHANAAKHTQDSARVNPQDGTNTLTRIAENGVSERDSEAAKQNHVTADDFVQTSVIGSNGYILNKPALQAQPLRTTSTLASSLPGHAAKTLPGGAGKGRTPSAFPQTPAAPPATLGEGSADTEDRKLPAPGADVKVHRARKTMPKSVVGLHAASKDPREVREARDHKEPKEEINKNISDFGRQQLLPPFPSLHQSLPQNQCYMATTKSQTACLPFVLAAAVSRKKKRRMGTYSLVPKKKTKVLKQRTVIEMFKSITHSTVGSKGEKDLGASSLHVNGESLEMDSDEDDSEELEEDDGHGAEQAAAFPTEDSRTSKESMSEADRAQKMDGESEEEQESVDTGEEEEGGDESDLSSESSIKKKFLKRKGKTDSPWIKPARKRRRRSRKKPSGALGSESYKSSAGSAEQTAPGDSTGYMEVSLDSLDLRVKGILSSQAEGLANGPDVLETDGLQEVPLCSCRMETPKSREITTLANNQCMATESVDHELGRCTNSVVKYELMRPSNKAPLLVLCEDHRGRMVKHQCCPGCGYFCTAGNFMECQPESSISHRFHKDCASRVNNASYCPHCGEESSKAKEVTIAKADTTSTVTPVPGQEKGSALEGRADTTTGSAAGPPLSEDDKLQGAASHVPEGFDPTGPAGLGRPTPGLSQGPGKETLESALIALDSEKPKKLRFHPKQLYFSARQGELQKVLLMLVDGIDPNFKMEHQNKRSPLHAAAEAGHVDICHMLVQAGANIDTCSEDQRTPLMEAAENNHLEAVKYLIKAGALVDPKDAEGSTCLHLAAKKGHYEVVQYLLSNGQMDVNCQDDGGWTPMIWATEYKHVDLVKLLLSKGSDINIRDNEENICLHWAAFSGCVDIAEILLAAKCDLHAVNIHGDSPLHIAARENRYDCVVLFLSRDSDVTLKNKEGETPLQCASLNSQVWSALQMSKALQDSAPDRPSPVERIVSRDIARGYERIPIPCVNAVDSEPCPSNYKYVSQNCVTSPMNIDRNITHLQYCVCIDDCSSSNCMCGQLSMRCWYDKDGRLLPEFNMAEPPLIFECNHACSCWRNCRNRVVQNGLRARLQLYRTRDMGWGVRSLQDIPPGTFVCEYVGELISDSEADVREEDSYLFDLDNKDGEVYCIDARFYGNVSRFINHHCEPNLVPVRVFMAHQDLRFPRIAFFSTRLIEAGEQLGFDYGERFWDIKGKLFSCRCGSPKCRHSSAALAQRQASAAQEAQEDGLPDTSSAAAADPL
As to the kind of experiment: NMR assay of GLP-catalyzed methylation of H3K9 peptides. Particulars: peptide 400 µM, GLP 8 µM, SAM 2 mM, 50 mM Tris-d11.HCl pD 8.0, 1 h, 37 °C. Format: biochemical.

For experiment [4], the target named is T2, G9a (Homo sapiens, UniProt Q96KQ7).
T2 construct: His6 (N); made in house; host or cells: E. coli BL21 (DE3)pLysS-rosetta
T2 sequence (Q96KQ7 1-1210): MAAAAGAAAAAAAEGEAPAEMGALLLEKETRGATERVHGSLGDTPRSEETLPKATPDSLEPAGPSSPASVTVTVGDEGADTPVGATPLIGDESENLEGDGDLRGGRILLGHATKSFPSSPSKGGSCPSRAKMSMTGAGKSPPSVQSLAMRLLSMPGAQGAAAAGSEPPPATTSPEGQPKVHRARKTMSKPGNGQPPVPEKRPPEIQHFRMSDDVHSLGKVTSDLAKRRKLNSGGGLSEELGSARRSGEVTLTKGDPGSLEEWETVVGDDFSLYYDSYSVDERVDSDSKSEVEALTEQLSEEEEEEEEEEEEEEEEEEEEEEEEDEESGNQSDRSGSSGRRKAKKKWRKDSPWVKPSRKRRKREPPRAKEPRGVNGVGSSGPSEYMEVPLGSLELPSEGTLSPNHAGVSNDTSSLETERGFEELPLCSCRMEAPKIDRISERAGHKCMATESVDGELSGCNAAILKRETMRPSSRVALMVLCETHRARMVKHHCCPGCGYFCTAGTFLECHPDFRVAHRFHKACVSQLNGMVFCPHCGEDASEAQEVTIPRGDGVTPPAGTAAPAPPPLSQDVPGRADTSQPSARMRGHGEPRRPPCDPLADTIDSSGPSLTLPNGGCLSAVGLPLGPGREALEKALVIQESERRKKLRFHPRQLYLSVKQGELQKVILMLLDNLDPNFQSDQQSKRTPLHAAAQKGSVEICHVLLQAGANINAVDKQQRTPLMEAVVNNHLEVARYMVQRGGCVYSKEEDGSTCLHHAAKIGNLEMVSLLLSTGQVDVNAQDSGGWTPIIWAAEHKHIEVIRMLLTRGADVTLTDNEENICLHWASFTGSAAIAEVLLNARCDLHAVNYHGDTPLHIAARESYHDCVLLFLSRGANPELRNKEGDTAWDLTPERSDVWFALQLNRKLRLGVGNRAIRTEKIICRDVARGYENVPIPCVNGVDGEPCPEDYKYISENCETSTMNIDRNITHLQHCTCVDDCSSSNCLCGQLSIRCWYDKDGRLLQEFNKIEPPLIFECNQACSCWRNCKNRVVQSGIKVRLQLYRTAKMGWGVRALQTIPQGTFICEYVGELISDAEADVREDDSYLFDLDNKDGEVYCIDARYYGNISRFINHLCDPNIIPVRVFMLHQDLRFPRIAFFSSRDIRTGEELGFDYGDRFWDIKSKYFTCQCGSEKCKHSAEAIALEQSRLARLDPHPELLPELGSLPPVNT
As to the kind of experiment: MALDI-TOF MS methylation assay of H3K9 peptides with G9a. Format: biochemical. Particulars: peptide 100 µM, G9a 2 µM, SAM 500 µM, 1 h, 37 °C. The protocol:
as §1

Experiment [5] concerns the target T1, GLP. Nature of the experiment: MALDI-TOF MS methylation assay of H3K9 peptides with GLP. To be noted: peptide 100 µM, GLP 10 µM, SAM 1 mM, 5 h, 37 °C, MALDI-MS. The class given is biochemical. The procedure:
as §1, with “Samples were incubated in an Eppendorf vial 1.5 mL using thermomixer for 1 h at 37 °C.” left out

Experiment [6] has as its target T3, SETD8 (Homo sapiens, UniProt Q9NQR1).
T3 construct: His6 (N); made in house; host or cells: E. coli BL21 (DE3)pLysS-rosetta
T3 sequence (Q9NQR1 1-393): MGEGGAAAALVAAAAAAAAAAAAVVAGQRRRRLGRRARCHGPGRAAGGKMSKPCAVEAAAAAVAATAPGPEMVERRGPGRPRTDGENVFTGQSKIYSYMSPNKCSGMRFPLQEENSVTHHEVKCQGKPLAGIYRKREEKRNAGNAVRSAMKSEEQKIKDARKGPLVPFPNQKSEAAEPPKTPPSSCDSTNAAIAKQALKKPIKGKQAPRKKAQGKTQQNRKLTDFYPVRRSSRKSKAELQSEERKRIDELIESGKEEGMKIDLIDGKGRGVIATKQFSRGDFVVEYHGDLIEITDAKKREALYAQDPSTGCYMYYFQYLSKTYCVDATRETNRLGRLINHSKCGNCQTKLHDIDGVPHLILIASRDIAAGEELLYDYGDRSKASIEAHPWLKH
As to the kind of experiment: Competition study between H4K20 and analog peptides with SETD8 (MALDI-MS). The class given is biochemical. To be noted: SETD8, equimolar H4K20 (100 µM) and H4KCP20 (100 µM), SAM 200 µM, 1 h, 37 °C. The source says: Next, we carried out competition studies between histone peptides that bear lysine and its analogs. In the presence of SETD8, SAM and equimolar amounts of H4K20 and H4KCP20, we observed the formation of both monomethylated products, albeit a comparatively larger degree of monomethylation of H4K20 was found (70% of H4K20me, 40% of H4KCP20me). […] It is also possible that subtle differences in sterics and electronics of H4KCP20 when compared to H4K20 do contribute to observed differences in the degree of methylation in the competition experiment.
Figure S31. MALDI-MS based assay showing ( a) SETD8-catalyzed monomethylation of […]
(b) SETD8-catalyzed methylation of H4K20 (100 µM) in the presence of H4F 3a20 (100 µM) and SAM (200 µM) after 1 h at 37 °C; ( c) SETD8-catalyzed methylation of H4K20 (100 µM) in the presence of H4F 4a20 (100 µM) and SAM (200 µM) after 1 h at 37 °C; ( d) SETD8-catalyzed methylation of H4K20 (100 µM) in the presence of H4A p20 (100 µM) and SAM (200 µM) after 1 h at 37 °C; ( e) SETD8-catalyzed methylation of H4K20 (100 µM) in the presence of […]
(1 picture or pasted object on this page, not shown here)

Experiment [7] deals with T3, SETD8. Nature of the experiment: MALDI-TOF MS methylation assay of H4K20 peptides with SETD8. Format: biochemical. To be noted: peptide 100 µM, SETD8 2 µM, SAM 200 µM, 50 mM Tris pH 8.0, 1 h, 37 °C, MALDI-TOF MS. The procedure: as §1, with “For regular methyltransferase standard conditions experiment which carried out in 30 µL total volume, the mixture contains peptide (100 µM), SAM (200 µM), SETD8 or SETD7 (2 µM), in assay buffer 50 mM Tris at optimal pH 8.0.” left out

Take “ART(Kcp4)QTARKSTGGKA [H3KCP4, H3K4 peptide bearing cyclopropyllysine at position 4]”: the results for the “SETD7-catalyzed methylation, result in words, high SETD7/SAM” value in experiment [1] and in experiment [1] (listed as H3K CP4) were “increased amount of the monomethylated H3KCP4me product” and “monomethylation”, respectively. The “SETD7-catalyzed methylation, result in words” value in experiment [2] is reported as “only traces”; in experiment [2] (listed as H3K CP4), “traces of monomethylation”.

“ARTKQTAR(Y9)STGGKA (ARTKQTARYSTGGKA) [H3Y9]”: in experiment [3], the “GLP-catalyzed methylation by 1H NMR / 1H-13C HSQC, result in words” value was “not methylated”. In experiment [4], the “G9a-catalyzed methylation, result in words” value was “lack of methylation”. Moreover, the “GLP-catalyzed methylation, result in words, increased GLP/SAM” value in experiment [5] is “lack of methylation”.

In the case of “GGAKRHRK^20VLRDNIQ [H4K20, reference compound]”, in experiment [6], the “monomethylated product formed in competition experiment” value is recorded as 70%. Further, in experiment [7], the “SETD8-catalyzed methylation, result in words” value was “quantitative monomethylation”.
